Assay results published in BindingDB's records for patent US20250144094 (Erasca, 2025).

Assays:
[1] = target: T1, Serine/threonine-protein kinase ULK1 (Homo sapiens, UniProt O75385); assay: ADP Glo Kinase Activity Assay
T1 sequence (O75385 whole entry): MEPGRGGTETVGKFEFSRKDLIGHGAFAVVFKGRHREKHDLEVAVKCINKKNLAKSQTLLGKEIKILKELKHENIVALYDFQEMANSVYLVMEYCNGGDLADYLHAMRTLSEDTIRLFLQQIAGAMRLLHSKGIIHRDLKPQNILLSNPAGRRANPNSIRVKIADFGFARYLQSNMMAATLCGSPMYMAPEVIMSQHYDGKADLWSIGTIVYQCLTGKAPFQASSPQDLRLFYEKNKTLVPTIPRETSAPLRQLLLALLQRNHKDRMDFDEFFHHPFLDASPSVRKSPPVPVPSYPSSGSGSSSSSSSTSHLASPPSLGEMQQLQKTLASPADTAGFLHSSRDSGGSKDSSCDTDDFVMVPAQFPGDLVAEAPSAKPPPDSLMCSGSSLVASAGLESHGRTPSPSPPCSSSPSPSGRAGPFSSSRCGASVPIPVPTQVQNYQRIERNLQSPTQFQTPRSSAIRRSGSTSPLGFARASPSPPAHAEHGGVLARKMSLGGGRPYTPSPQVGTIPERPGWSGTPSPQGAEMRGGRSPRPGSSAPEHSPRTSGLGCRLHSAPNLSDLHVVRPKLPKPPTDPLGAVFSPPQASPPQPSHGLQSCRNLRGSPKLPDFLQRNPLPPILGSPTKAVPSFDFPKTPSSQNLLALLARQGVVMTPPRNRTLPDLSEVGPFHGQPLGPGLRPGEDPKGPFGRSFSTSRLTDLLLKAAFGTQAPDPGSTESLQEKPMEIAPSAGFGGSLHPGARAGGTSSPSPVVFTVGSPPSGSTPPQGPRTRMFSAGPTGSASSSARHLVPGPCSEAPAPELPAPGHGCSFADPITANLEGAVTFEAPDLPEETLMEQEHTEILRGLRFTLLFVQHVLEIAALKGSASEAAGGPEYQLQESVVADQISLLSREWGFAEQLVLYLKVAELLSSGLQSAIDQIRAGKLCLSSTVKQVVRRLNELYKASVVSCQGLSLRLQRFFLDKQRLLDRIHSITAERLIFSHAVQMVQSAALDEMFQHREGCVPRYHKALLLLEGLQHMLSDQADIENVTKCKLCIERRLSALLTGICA
Experimental: (§1) Table 3: ULK1 inhibitor potency was determined using the luminescent ADP Glo Kinase Assay (Promega), a universal ADP detection system that measures kinase activity by quantifying the amount of ADP produced during a kinase reaction. ULK1 kinase reactions are performed in a standard 96-well microplate (20 uL reaction volume) at 25° C. for 40 minutes in the presence or absence of the test compound (12-point dilution series starting at 10 uM). Addition of MBP substrate and ATP initiates the kinase reaction.The standard ADP Glo assay is performed in two steps. In step one, following the kinase reaction, an equal volume of ADP-Glo™ Reagent (20 uL) is added to terminate the kinase reaction and deplete the remaining ATP. In the second step, the Kinase Detection Reagent (10 uL) is added to simultaneously convert ADP to ATP and allow the newly synthesized ATP to be measured using a luciferase/luciferin reaction. Step two of the ADP Glo assay is performed in a white 384-well plate (20 uL final volume). Thirty minutes after the addition of the Detection reagent, light generated from the luciferase reaction is measured (1 second exposure) using a microplate compatible luminometer (CLARIOstar, BMG Labtech).Inhibition of ULK1 kinase activity is determined for each test compound by comparison to DMSO only control wells.

[2] = target: T2, Serine/threonine-protein kinase ULK1 [1-649] (UniProt O75385); assay: ADP Glo Kinase Activity Assay
T2 construct: 1-649
T2 sequence (O75385 whole entry): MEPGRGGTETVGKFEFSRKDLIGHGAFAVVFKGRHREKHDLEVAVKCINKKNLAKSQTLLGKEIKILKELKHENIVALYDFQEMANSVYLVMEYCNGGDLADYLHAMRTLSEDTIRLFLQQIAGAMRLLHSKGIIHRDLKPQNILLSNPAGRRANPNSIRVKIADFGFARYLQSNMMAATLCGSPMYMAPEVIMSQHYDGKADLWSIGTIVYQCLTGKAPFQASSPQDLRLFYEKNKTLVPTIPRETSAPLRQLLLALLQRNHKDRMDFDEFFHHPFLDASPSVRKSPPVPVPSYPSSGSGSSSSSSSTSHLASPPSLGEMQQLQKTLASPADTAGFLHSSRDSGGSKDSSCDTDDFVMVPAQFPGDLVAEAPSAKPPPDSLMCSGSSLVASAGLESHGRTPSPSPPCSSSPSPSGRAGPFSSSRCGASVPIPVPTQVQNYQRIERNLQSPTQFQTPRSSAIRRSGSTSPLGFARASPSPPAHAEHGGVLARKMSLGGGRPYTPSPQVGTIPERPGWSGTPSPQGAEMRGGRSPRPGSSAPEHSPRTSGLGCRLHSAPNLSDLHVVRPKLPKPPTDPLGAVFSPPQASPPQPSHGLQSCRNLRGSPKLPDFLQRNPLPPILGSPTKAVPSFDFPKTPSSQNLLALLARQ
Experimental: as §1, with “4:” for “3:”, “μL” for “uL”, “μM).” for “uM).”, “peptide” for “MBP”, “μL)” for “uL)”, “wells. Inhibitor IC50 was calculated by plotting the change in luminescence after 30 minutes (response) versus inhibitor concentration (in log molar) then applying the four-parameter variable slope curve fit (GraphPad Prism).” for “wells.”

| IC50 [1] [nM] | IC50 [2] [nM] | SMILES |
| --- | --- | --- |
| < 10 | – | COCCS(=O)(=O)c1csc(-c2nc(Nc3cc4c(cc3C3CC3)CNCC4)ncc2C(F)(F)F)c1 [US20250144094, Example 65] |
| < 10 | – | CN1CCc2cc(Nc3ncc(C(F)(F)F)c(-c4cc(S(C)(=O)=O)cs4)n3)ccc2C1 [US20250144094, Example 106] |
| – | < 5 | CCN1CCc2cc(Nc3ncc(C(F)(F)F)c(-c4cc5c(s4)C(=O)N(CC(F)(F)F)CCS5(=O)=O)n3)c(C3CC3)cc2C1 [US20250144094, Example 245] |
| – | < 5 | CN1CCN(c2ccc(Nc3ncc(C(F)(F)F)c(-c4cc5c(s4)C(=O)N(C)CCS5(=O)=O)n3)c(Cl)c2)CC1 [US20250144094, Example 194] |
| – | < 5 | C[C@@H]1CN(c2ccc(Nc3ncc(C(F)(F)F)c(-c4cc5c(s4)C(=O)N(C)CCS5(=O)=O)n3)c(C3CC3)c2)CCN1 [US20250144094, Example 365] |
| < 10 | – | O=C1NCCS(=O)(=O)c2cc(-c3nc(Nc4cc5c(cc4F)CNCC5)ncc3C(F)(F)F)sc21 [US20250144094, Example 134] |
| – | < 5 | CCN1CCc2cc(Nc3ncc(C(F)(F)F)c(-c4cc5c(s4)C(=O)N(C4CCC4)CCS5(=O)=O)n3)c(C3CC3)cc2C1 [US20250144094, Example 226] |
| < 10 | – | CN1CCN(c2ccc(Nc3ncc(C(F)(F)F)c(-c4cc(S(C)(=O)=O)cs4)n3)c(Cl)c2)CC1 [US20250144094, Example 112] |
| – | < 5 | NC(=O)CN1CCc2cc(Nc3ncc(C(F)(F)F)c(-c4cc5c(s4)C(=O)N(C4CC4)CCS5(=O)=O)n3)c(C3CC3)cc2C1 [US20250144094, Example 278] |
| < 10 | – | CN1Cc2ccc(Nc3ncc(C(F)(F)F)c(-c4cc(S(C)(=O)=O)cs4)n3)cc2C1 [US20250144094, Example 81] |
| – | < 5 | CN1CCS(=O)(=O)c2cc(-c3nc(Nc4ccc(N5CC6CC(C5)N6)cc4C4CC4)ncc3C(F)(F)F)sc2C1=O [US20250144094, Example 381] |
| – | < 5 | O=C1c2sc(-c3nc(Nc4cc5c(cc4Cl)CNCC5)ncc3C(F)(F)F)cc2S(=O)(=O)CCN1CC1CC1 [US20250144094, Example 153] |
| – | < 5 | O=C1c2sc(-c3nc(Nc4ccc(N5CCN(CC6CC6)CC5)cc4C4CC4)ncc3C(F)(F)F)cc2S(=O)(=O)CCN1C1CC1 [US20250144094, Example 251] |
| < 10 | – | CS(=O)(=O)c1csc(-c2nc(Nc3cn(C4CNC4)nc3C3CC3)ncc2C(F)(F)F)c1 [US20250144094, Example 130] |
| – | < 5 | O=C1c2sc(-c3nc(Nc4cc5c(cc4C4CC4)CN(CCF)CC5)ncc3C(F)(F)F)cc2S(=O)(=O)CCN1C1COC1 [US20250144094, Example 290] |
| – | 7.5 | CCc1cc(C2CCNCC2)ccc1Nc1ncc(C(F)(F)F)c(-c2cc3c(s2)C(=O)N(C2CC2)CCS3(=O)=O)n1 [US20250144094, Example 281] |
| – | < 5 | CCc1cc2c(cc1Nc1ncc(C(F)(F)F)c(-c3cc4c(s3)C(=O)N(C3COC3)CCS4(=O)=O)n1)CCNC2 [US20250144094, Example 229] |
